The results in this text go back to publication PMC11586601 (Journal of Inherited Metabolic Disease, 2024).

The target of series [1] is T1, cHuNAGS (linker-cleaved) (Homo sapiens, UniProt Q8N159).
T1 sequence (Q8N159 95-534): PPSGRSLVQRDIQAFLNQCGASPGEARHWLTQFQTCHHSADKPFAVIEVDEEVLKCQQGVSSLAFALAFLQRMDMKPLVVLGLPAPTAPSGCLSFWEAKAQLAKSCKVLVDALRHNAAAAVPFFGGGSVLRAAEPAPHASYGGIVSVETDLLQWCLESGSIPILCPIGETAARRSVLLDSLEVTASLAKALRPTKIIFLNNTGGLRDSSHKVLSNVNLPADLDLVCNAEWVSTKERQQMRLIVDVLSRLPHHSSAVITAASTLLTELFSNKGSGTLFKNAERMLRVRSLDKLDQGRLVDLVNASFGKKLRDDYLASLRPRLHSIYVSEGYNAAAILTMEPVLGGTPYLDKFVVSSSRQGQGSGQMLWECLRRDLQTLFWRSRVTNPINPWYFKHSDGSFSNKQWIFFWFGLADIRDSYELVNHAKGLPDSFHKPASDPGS
The series can be described thus: biochemical.

For series [2], the target named is cHuNAGS (linker-cleaved) (Homo sapiens, UniProt Q8N159, V350I). The series can be described thus: biochemical.
The series “SEC” concerns the molecule itself. The series can be described thus: SEC. On the technique in general: SEC sorts molecules by how far they enter the pores of the column.

cHuNAGS (linker-cleaved) (Homo sapiens, UniProt Q8N159, V350I), sequence (Q8N159 95-534 V350I): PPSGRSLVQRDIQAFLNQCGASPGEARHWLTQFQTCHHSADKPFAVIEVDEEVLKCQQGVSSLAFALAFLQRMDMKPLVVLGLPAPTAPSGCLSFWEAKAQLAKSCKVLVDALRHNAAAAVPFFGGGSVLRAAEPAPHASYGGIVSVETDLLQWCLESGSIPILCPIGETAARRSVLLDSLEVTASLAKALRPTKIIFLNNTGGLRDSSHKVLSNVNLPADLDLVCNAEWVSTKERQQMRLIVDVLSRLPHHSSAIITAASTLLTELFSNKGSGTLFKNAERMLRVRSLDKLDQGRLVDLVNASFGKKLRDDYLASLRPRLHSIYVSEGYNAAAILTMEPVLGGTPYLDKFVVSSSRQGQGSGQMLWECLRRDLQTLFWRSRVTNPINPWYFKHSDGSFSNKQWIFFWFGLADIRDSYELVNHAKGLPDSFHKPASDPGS

In the case of `N=C(N)NCCC[C@H](N)C(=O)O` [arginine], the EC50 (as a rule, the concentration at which the effect is half-maximal) on cHuNAGS (linker-cleaved) [1] is about 20 µM; at cHuNAGS (linker-cleaved) [2] it was over 4 mM.

B1: His6-MBP-cHuNAGS chimera (wild-type) (domain or fragment, human)
chain: LEVLFQGPMPPSGRSLVQRDIQAFLNQCGASPGEARHWLTQFQTCHHSADKPFAVIEVDEEVLKCQQGVSSLAFALAFLQRMDMKPLVVLGLPAPTAPSGCLSFWEAKAQLAKSCKVLVDALRHNAAAAVPFFGGGSVLRAAEPAPHASYGGIVSVETDLLQWCLESGSIPILCPIGETAARRSVLLDSLEVTASLAKALRPTKIIFLNNTGGLRDSSHKVLSNVNLPADLDLVCNAEWVSTKERQQMRLIVDVLSRLPHHSSAVITAASTLLTELFSNKGSGTLFKNAERMLRVRSLDKLDQGRLVDLVNASFGKKLRDDYLASLRPRLHSIYVSEGYNAAAILTMEPVLGGTPYLDKFVVSSSRQGQGSGQMLWECLRRDLQTLFWRSRVTNPINPWYFKHSDGSFSNKQWIFFWFGLADIRDSYELVNHAKGLPDSFHKPASDPGS
Regarding B1, in “SEC”, the binding result is given as “binds”.
